Data reported in patent US20260000781A1, “FC CONJUGATES INCLUDING AN INHIBITOR OF CD73 AND USES THEREOF” (Cidara Therapeutics, Inc., priority 2022, published 2026).

Columns and labels:
CD73 = biological target: T1, CD73 (Homo sapiens, UniProt P21589); assay: Cell-free CD73 enzyme inhibition assay; type: biochemical; conditions: recombinant human CD73 0.1 ng/μL, AMP 100 μM, 25 min at 37° C. (FIG. 1A, 1B)
T1 sequence (P21589 27-549): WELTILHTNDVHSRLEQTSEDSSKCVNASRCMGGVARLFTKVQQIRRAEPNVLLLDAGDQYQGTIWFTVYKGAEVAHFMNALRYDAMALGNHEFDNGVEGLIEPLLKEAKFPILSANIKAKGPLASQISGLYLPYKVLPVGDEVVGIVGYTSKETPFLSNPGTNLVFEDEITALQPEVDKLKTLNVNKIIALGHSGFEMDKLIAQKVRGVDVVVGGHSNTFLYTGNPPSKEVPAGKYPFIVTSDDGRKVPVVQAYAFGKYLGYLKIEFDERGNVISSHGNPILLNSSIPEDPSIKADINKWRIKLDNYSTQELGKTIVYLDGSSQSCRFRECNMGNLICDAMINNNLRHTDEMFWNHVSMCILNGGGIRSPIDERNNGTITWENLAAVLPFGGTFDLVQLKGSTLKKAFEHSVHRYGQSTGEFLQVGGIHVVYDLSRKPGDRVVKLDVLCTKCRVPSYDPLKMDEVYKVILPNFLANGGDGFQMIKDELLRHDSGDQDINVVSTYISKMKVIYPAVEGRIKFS
Description: The cell-free CD73 enzyme inhibition assay was performed in a 96-well plate format using the CD73 Inhibitor Screening Assay Kit in accordance with the manufacturer's instructions (cat no. 72055, BPS Bioscience). […] Colorimetric detection reagent was then added (100 μL/well) and the free phosphate from the CD73 reaction was measured by reading the absorbance at 630 nm using the EnSpire multimode plate reader (PerkinElmer). Wells without test inhibitor (CD73 positive control) were included on each plate. Blank wells without test inhibitor and CD73 were subtracted from all wells. Percent CD73 inhibition versus inhibitor concentration was plotted using GraphPad Prism Version 8 and IC50's calculated using nonlinear regression analysis (Sigmoidal, 4 PL).
The cell-free CD73 enzyme inhibition assay was performed in a 96-well plate format using the CD73 Inhibitor Screening Assay Kit in accordance with the manufacturer's instructions (BPS Bioscience cat no. 72055). […] Colorimetric detection reagent was then added (100 μL/well) and the free phosphate from the CD73 reaction was measured by reading the absorbance at 630 nm using the EnSpire multimode plate reader (PerkinElmer). Wells without test inhibitor (CD73 positive control) were included on each plate. Blank wells without test inhibitor and CD73 were subtracted from all wells. Percent CD73 inhibition (y-axis) versus log10 inhibitor concentration (x-axis) was plotted using GraphPad Prism Version 8 and IC50's calculated using nonlinear regression analysis (Sigmoidal, 4 PL).

[1] = biological target: T2, CD73 expressed on the MDA-MB-231 cell surface (Homo sapiens, UniProt P21589); assay: Cell-based CD73 enzyme inhibition assay on MDA-MB-231 cells; conditions: AMP 100 μM, 3 h (FIG. 2)
T2 construct: host or cells: MDA-MB-231
T2 sequence (P21589 27-549): T1 sequence (P21589 27-549)
Description: The cell-based CD73 enzyme inhibition assay was performed essentially as described above for the cell-free assay, with the following modifications.
(§1) The cell-based CD73 enzyme inhibition assay was performed essentially as described above for the cell-free assay, with the following modifications. MDA-MB-231 human breast adenocarcinoma cells (ATCC CRM-HTB-26) were seeded at 2×10^4 cells/well/100 μL into 96-well tissue culture-treated plates (Corning Costar cat no. 3596) and incubated overnight at 37° C., 5% CO2. […] The 96-well plate was then centrifuged at 125×g for 5 min at room temperature and ATP (25 μL/well, 100 μM final) was combined with supernatant (25 μL/well) in a white opaque 96-well plate (Corning Costar cat no. 3912).
as §1, with “3912). […] Percent CD73 inhibition (y-axis) versus log10 inhibitor concentration (x-axis) were plotted using GraphPad Prism Version 8 and IC50's calculated using nonlinear regression analysis (Sigmoidal, 4 PL).” for “3912).”

[2] = biological target: T3, surface-expressed CD73 on human PBMCs (Homo sapiens, UniProt P21589); assay: Human immune cell-based CD73 enzyme inhibition assay (PBMCs); conditions: AMP 300 μM, 2.5-3 h
T3 construct: 72400 (T cells); host or cells: human PBMCs / human T cells
T3 sequence (P21589 27-549): T1 sequence (P21589 27-549)
Description: (§2) The human immune cell-based CD73 enzyme inhibition assay was performed essentially as described above For the cell-free assay, with the following modifications. Human PBMCs (cat. no. HUMAN-PBMC-U-211140) or T cells (cat. no. 72400, Stem Cell Tech) were seeded at 8×10^3 cells/well into 96-well tissue culture-treated plates. […] Percent CD73 inhibition versus concentration were plotted using GraphPad Prism Version 8 and IC50's calculated using nonlinear regression analysis ([inhibitor]vs normalized response).

[3] = biological target: T4, surface-expressed CD73 on human T cells (Homo sapiens, UniProt P21589); assay: Human immune cell-based CD73 enzyme inhibition assay (T cells); conditions: 2.5-3 h
T4 construct: 72400 (T cells); host or cells: human PBMCs / human T cells
T4 sequence (P21589 27-549): T1 sequence (P21589 27-549)
Description: as §2

| IC50 (CD73) | IC50 [1] | IC50 [2] | IC50 ([3]; T Cells - Experiment 1, AMP 300 μM) | IC50 ([3]; T Cells - Experiment 2, AMP 300 μM) | SMILES |
| --- | --- | --- | --- | --- | --- |
| 26.1 nM | 41.4 nM |  |  |  | C#CCOCCOCCOCCOCCOC1CCC2(CC1)CN(c1nc(Cl)nc3c1cnn3[C@@H]1O[C@H](COCP(=O)(O)O)[C@@H](O)[C@H]1O)C2 [Int-258] |
|  |  | 2.87 nM | 1.47 nM | 0.12 nM | O=C(CCOCCOCCOCCOCCn1cc(COCCOCCOCCOCCOC2CCC3(CC2)CN(c2nc(Cl)nc4c2cnn4[C@@H]2O[C@H](COCP(=O)(O)O)[C@@H](O)[C@H]2O)C3)nn1)Oc1c(F)cc(F)cc1F [Int-259] |
